The values below come from patent publication US20170152245A1 (National Taiwan University, priority 2015, published 2017).

One data set has as its target T1, thromboxane receptor (Homo sapiens, UniProt P21731).
T1 sequence (P21731 1-343): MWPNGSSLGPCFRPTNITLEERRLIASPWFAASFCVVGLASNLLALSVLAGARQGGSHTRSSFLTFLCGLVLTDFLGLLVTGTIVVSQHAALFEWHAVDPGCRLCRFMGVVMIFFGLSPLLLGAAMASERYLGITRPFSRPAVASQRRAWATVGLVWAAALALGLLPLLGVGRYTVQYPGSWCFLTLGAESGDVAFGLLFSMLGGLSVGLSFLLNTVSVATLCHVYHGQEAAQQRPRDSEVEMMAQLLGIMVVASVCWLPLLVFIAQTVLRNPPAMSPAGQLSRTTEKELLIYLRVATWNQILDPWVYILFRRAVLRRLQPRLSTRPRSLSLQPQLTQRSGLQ
The following applies: cited from earlier work; for Thromboxane receptor: Table III arrows, reference drugs.

A further data set addresses T2, Thromboxane synthase (Homo sapiens, UniProt P24557).
T2 construct: MDS
T2 sequence (P24557 1-533): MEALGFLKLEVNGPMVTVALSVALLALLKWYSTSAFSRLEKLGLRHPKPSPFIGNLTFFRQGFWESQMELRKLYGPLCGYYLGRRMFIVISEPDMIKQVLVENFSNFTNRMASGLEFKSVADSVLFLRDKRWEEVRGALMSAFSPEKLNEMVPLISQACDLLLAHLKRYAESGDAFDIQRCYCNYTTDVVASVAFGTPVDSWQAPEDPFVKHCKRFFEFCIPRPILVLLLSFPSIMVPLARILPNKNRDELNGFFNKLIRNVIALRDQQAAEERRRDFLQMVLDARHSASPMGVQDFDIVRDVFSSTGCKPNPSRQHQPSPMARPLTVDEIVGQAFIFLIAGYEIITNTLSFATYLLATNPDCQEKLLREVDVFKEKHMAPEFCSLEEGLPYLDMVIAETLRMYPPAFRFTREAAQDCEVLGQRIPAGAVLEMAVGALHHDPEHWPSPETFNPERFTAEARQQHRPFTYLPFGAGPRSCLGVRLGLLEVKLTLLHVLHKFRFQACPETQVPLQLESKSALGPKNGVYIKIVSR
The note with it: cited from earlier work; for Thromboxane synthase: Table III arrows, reference drugs.

The next data set concerns PGI2 formation. The following applies: Table III arrows, reference drugs; cited from earlier work.
The subject of data set [1] is mesenteric venules of mice. The data set can be described thus: Fluorescein sodium-induced platelet thrombus formation in mesenteric venules of mice. The data set is classed as in vivo. Here is the method: A modification of the method was used. Male ICR mice (12-14 g) were anesthetized with sodium pentobarbital (50 mg/kg, i.p.). […] Five min later, various doses of nstpbp5185 (2 and 4 μg/g), aspirin (150 and 250 μg/g), or DMSO (control) were administered by i.v. through other lateral tail vein. The injected volume of the nstpbp5185, aspirin, or DMSO (control) was smaller than 10 μl. A segment of the small intestine with its mesentery attached was exteriorized through a midline incision on the abdominal wall and placed onto a transparent plastic plate for microscopic observation. Frequent rinsing of the mesentery with warm isotonic saline kept at 37° C. was performed to prevent the mesentery from drying out. Microvessels in the mesentery were observed under transillumination from a halogen lamp. Venules with diameters of 30-40 μm were selected to be irradiated to produce a microthrombus. In the epi-illumination system, light from a 100-W mercury lamp was filtered through a filter (B-2A, Nikon, Tokyo, Japan) with a dichromic mirror (DM 510, Nikon). The filtered light eliminated wavelengths below 520 nm irradiated a microvessel through an objective lens (20×). The area of irradiation was about 100 μm in diameter on the focal plane. Ten minutes after administration of the dye, the irradiation by filtered light and a timer were simultaneously started, and thrombus formation was observed on a TV-monitor. Occlusion time was recorded as the time interval for inducing thrombus formation leading to cessation of blood flow.
After giving 50 μg/g fluorescein sodium, the irradiation of mesenteric venules induced thrombus formation which is consist of activated platelets and fibrin clots. […] In the vehicle-treated group, the average TTO was approximately 143.71±4.99 sec (n=17). The group pre-treated with compound 5185 (10 μg/g), the average TTO value was 208.67±6.99 sec (n=12).

For data set [2], the system named is human platelet suspension. The data set can be described thus: Collagen-induced platelet aggregation in human platelet suspension. The data set is classed as cell-based. The following applies: Platelet; collagen 10 μg/ml; washed human platelets; read-out: IC50 collagen-induced platelet aggregation in human PS. Here is the method:
(§1) Human platelet suspension (PS) was prepared according to the method described previously. Briefly, blood sample, freshly obtained from healthy volunteers who had taken no medications during the preceding 2 weeks, was treated with acid citrate/dextrose (ACD) in a volume ratio of 9:1. After centrifugation at 120 g, 25° C. for 9 min, platelet-rich plasma was transferred into another plastic tube and incubated with heparin (6.4 U/ml) as well as prostaglandin E1 (1 μM). Platelets were spun down by centrifugation at 500 g, 25° C. for 8 min and subsequently washed two times with Tyrode solution (NaH2PO4 0.4 mM; NaCl 136.9 mM; KCl […]; NaHCO3 11.9 mM; CaCl2 2 mM; MgCl2 2.1 mM; glucose 11.1 mM; BSA 3.5 mg/ml; pH 7.35-7.4). The washed platelets were finally suspended in Tyrode's solution and the platelet count was adjusted to 3.75×10^8 platelets/ml. For platelet-rich plasma (PRP) preparation, whole blood was anticoagulated with 1/10 vol of sodium citrate (3.8%, w/v) and centrifuged at 150 g, 25° C. for 9 min.
(§2) Platelet aggregation was measured turbidimetrically with a Lumi-aggregometer (Payton Scientific) at 37° C. under stirring condition (900 rpm). Platelet suspensions were prewarmed to 37° C. for 2 min in a silicone-treated glass cuvette. Nstpbp5185 was added 3 min before the addition of platelet-aggregation inducers. The extent of platelet aggregation was determined by recording the increase of light transmission relative to that of control (maximal aggregation, as 100%) for 6 min after the addition of inducer. The final volume and platelet count for measuring platelet aggregation were 500 μl and 3×10^8/ml, respectively.

The subject of another data set is Cox-1,-2. The following applies: Table III arrows, reference drugs; cited from earlier work.
In a further data set the test system is mice carotid artery. The data set can be described thus: FeCl3-induced thrombus formation in mice carotid artery. The data set is classed as in vivo. Here is the method: FIG. 14 The antithrombotic activity of nstpbp5185 in FeCl3-induced thrombi formation in mice carotid artery. (A) Mice were intravenously administered with Heparin (10 or 100 U kg^−1), Aspirin (40 or 80 μg g^−1), or different doses of nstpbp5185 (B). After 5 min, FeCl3 injury was induced by a filter paper saturated with ferric chloride solution (10%). After removal of the paper, carotid blood flow (ml min^−1) was monitored continuously until thromboembolism formation or for 60 min. (C) Mice were orally administered with different doses of Aspirin and nstpbp5185 (D). Both drugs were suspended in 1% CMC. Blood flow monitoring were recorded used analyzed Labchart software (AD instruments). Data are presented as the mean±SEM (n≧3). **P<0.01 and ***P<0.001 as compared with the vehicle control (DMSO).
Mice were intravenously or orally administered with different doses of nstpbp5185.

In data set [3] the test system is human platelet suspension. The data set can be described thus: Arachidonic acid-induced platelet aggregation in human platelet suspension. The following applies: AA 200 μM. The data set is classed as cell-based. The method, then:
as §1, §2

Data set [4] deals with human platelet-rich plasma. The data set can be described thus: Collagen-induced platelet aggregation in human platelet-rich plasma. The data set is classed as cell-based. The note with it: human PRP, data not shown, read-out: IC50 collagen-induced platelet aggregation in human PRP. Here is the method: as §1, §2
The subject of the next data set is rats. The data set can be described thus: Gastric damage in rats. The data set is classed as in vivo. The following applies: 150 μg g^−1 oral, 3 h. Here is the method:
Rats (Wistar) were fasted overnight then given aspirin at dose of 150 mg/kg or nstpbp5185 at 40 mg/kg. Both drugs were suspended in 1% carboxymethylcellulose. Three hours later, the rats were sacrificed, the stomach excised, and the extent of hemorrhagic erosions scored by an observer unaware of treatment the rats received. Each lesion larger than 2 mm was counted for comparison. The stomach was fixed in formalin (pH, 7.4) and photographed.

Data set [5] deals with human platelet suspension. The data set can be described thus: U46619-induced platelet aggregation in human platelet suspension. The data set is classed as cell-based. The note with it: 500 μM; data not shown. The method, then: as §1, §2
Data set [6] deals with human platelet suspension. The data set can be described thus: Thromboxane B2 formation in human platelet suspension. The data set is classed as cell-based. The following applies: Homo sapiens, Platelet; collagen-activated platelets; 500 μM; read-out: inhibition of TXB2 formation. Here is the method: Human platelet suspension (3.75×10^8/ml) was preincubated in the presence or absence of nstpbp5185 or aspirin for 3 min before the addition of collagen or AA. Six minutes after the addition of agonist, […] indomethacin and 2 mM EDTA were added to the reaction suspension. After centrifugation in an Eppendorf centrifuge at 14,000 g for 2 min, the thromboxane B2 (TXB2), the stable metabolite of TXA2, levels of the supernatant were measured using a competitive enzyme-immuno assay (EIA) kit according to the instructions of the manufacturer.

SMILES strings stand for the structures.

As for `Cc1ccc2c(c1CCC(=O)O)CC[C@@H](NS(=O)(=O)c1ccc(Cl)cc1)C2` [Example S18886], on thromboxane receptor, the Thromboxane receptor entry is “↓”. For the same compound, the Thromboxane synthase entry at Thromboxane synthase is reported as “↓”.

By IC50 is commonly meant the point on the concentration scale where inhibition reaches its midpoint. For `O=C(O)CCCCO/N=C(/c1cccnc1)c1cccc(C(F)(F)F)c1` [Ridogrel], in the data set on PGI2 formation, the PGI2 formation result is “↑”. Besides, at thromboxane receptor, the Thromboxane receptor entry is listed as “↓”. The IC50 at thromboxane receptor (reference drug) is 1 µM; on Thromboxane synthase (reference drug) it was 0.001 µM. Moreover, on Thromboxane synthase, the Thromboxane synthase result is on record as “↓”.

As a reminder, the inhibition is the drop in the measured response relative to a control, in per cent. Regarding `CC(=O)Oc1ccccc1C(=O)O` [aspirin, reference compound], in data set [1] (250 μg g^−1 i.v.), the occlusion time worked out at 175.5 ± 25.3 s; the “occlusion time at return to control, within 60 min” value is 82.6 ± 9.4 s; the “occlusion time within 40 min after administration” value was determined as 155.0 ± 7.1 s; the “time until occlusion time returned to the control value” was at most 60 min. In addition, in data set [1] (low dose (below 250 μg g^−1)), the “change of occlusion time” value was “did not significantly change”. In addition, in [2], the IC50 is about 190 µM. In the data set with Cox-1,-2, the “Cox-1,-2” value was “↓”. Besides, the PGI2 formation entry in the data set on PGI2 formation is recorded as “↓”. In the data set on mice carotid artery (heparin 10 U kg^−1 or aspirin 40 μg g^−1 i.v.), the “time to FeCl3-induced occlusion” value is “about 10 min”. Besides, the FeCl3-induced thrombus formation result with mice carotid artery (heparin 100 U kg^−1 or aspirin 80 μg g^−1 i.v.) is reported as “blocked”. This compound displayed an IC50 in [3] of 313 ± 18.7 µM. The IC50 in data set [4] amounted to 5100 ± 700 µM. In addition, the “gastric lesions (>2 mm)” value in the data set on rats is “marked lesions”. Further, the “effect on U46619-induced platelet aggregation” value in data set [5] is “no effect”. Moreover, the inhibition at 500 µM in [6] was 96%.
